Measurements taken from US20100249064A1, “METHODS AND COMPOSITIONS FOR TREATING DISEASES AND CONDITIONS INVOLVING HIGHER MOLECULAR WEIGHT HYALURONAN” (University of Chicago, priority 2007, published 2010).
“Also recorded” adds a separate entry of the source.

Experiments:
[1] = system: LPS-induced murine lung vascular permeability; assay: LPS-induced murine lung vascular permeability, bronchioalveolar lavage (BAL) protein and cytokines; assay type: in vivo, mouse; conditions: for LPS-induced pulmonary hyper-permeability (BAL protein concentration): wildtype C57BL/6J mice, LPS 2.5 mg/kg intratracheally, HMW-HA 1.5 mg/kg or HGF 50 μg/kg intravenously 4 hours after LPS, BAL at 24 hours
Procedure: Animal Preparation and Treatment—Male C57BL/6J and CD44 knockout mice (8-10 weeks, Jackson Laboratories, Bar Harbor, Me.) were anesthetized with intraperitoneal ketamine (150 mg/kg) and acetylpromazine (15 mg/kg) according to approved protocols. LPS (2.5 mg/kg) or saline (control) were instilled intratracheally and four hours later, HGF (50 μg/kg) or saline control delivered intravenously through the internal jugular vein. The animals were allowed to recover for 24 h followed by bronchioalveolar lavage protein analysis and/or lung immunohistochemistry.
Determination of Bronchioalveolar Lavage Protein Concentration—Bronchioalveolar lavage (BAL) was performed by an intratracheal injection of 1 cc of Hank's balanced salt solution followed by gentle aspiration. The recovered fluid was processed for protein concentration (BCA Protein Assay Kit; Pierce Chemical Co., Rockford, Ill.) as described (Su et al., 2004).
Animals. Male C57BL/6J mice, CD44 knockout mice, Caveolin-1 knockout mice (8-10 weeks, Jackson Laboratories, Bar Harbor, Me.) were anesthetized with intraperitoneal ketamine (150 mg/kg) and acetylpromazine (15 mg/kg) according to approved protocols. LPS (2.5 mg/kg) or saline (control) were instilled intratracheally and four hours later, HMW-HA (1.5 mg/kg) or saline control delivered intravenously through the internal jugular vein. The animals were allowed to recover for 24 hours followed by bronchioalveolar lavage protein analysis and/or lung immunohistochemistry.
Determination of protein concentration. Total protein concentration. TGF-alpha concentration. TGF-beta1 concentration. Bronchioalveolar lavage (BAL) was performed by an intratracheal injection of 1 cc of Hank's balanced salt solution followed by gentle aspiration. The recovered fluid was processed for protein concentration (BCA Protein Assay Kit; Pierce Chemical Co., Rockford, Ill.) or used to determine TNF-α and TGF-β1 concentrations using quantitative sandwich enzyme immunoassays (R & D Systems, Minneapolis, Minn.).
Animal Preparation and Treatment. Male C57BL/6J, B6129N2, CD44^−/− or caveolin-1^−/− mice (8-10 weeks, Jackson Laboratories, Bar Harbor, Me.) were anesthetized with intraperitoneal ketamine (150 mg/kg) and acetylpromazine (15 mg/kg) before exposure of the right internal jugular vein via neck incision. LPS (2.5 mg/kg) or water (control) were instilled intratracheally. Four hours later, mice receive high MW HA (1.5 mg/kg) or water control through the internal jugular vein. The animals were allowed to recover for 24 hours after LPS before bronchioalveolar lavage protein and cytokine concentration and/or lung immunohistochemistry/immunoblot analysis (Peng et al., 2004).
Determination of Bronchoavleolar Lavage Protein and Cytokine Concentration. Bronchioalveolar lavage (BAL) was performed by an intratracheal injection of 1 cc of Hank's balanced salt solution followed by gentle aspiration. The recovered fluid was processed for protein concentration (BCA Protein Assay Kit; Pierce Chemical Co., Rockford, Ill.) (Peng et. al., 2004). Cytokines (IL-6, TNFalpha) were measured using a Quantikine sandwich ELISA kit (R & D Systems).

[2] = system: hyaluronidase; assay: VEGF-induced hyaluronidase expression (immunoblot); assay type: cell-based, human; conditions: 100 nM HMW-HA, 100 nM VEGF
Procedure: Determination of the role of HMW-HA/CD44 interactions in regulating hyaluronidase activity and angiogenesis in vitro. Human pulmonary microvascular EC (HPMVEC) (Cambrex), grown in EBM-2 complete medium (Cambrex) at 37° C. in a humidified atmosphere of 5% CO2, 95% air, with passages 6-10 used for experimentation was treated with or without 100 nM HMW-HA and/or 100 nM VEGF in the presence or absence of CD44 isoform-specific blocking antibodies (EMD Biosciences), siRNA (scramble, CD44, Hyal-1, Hyal-2, Hyal-3 or Hyal-4) and the potent hyaluronidase inhibitor, L-ascorbic acid 6-hexadecanoate (Botzki et al., 2004) (Sigma). […] Treated EC will either be analyzed for protein expression, hyaluronidase activity or VEGF-induced proliferation, migration or tube formation. […] Cells from the upper and lower chamber were quantitated using the CellTiter96™ MTS assay (Promega, San Luis Obispo, Calif.) and read at 492 nm. % migration was defined as the # of cells in the lower chamber […] the number of cells in both the upper and lower chamber. Each assay was set up in triplicate, repeated at least five times and analyzed statistically by Student's t test (with statistical significance set at P<0.05). […] The in vitro cell proliferation assay was analyzed by measuring increases in cell number using the CellTiter96™ MTS assay (Promega, San Luis Obispo, Calif.) and read at 492 nm. […]

[3] = wild type mice, LPS 2.5 mg/kg, HMW-HA 1.5 mg/kg i.v. after 4 hours

With hyaluronan [HMW-HA] the “protective effect on LPS-induced pulmonary hyper-permeability (BAL) in knockout mice” value ([1]; CD44 knockout (and, where stated, Caveolin-1 knockout) mice, same regimen) was “markedly attenuated in the CD44 knockout mouse; also recorded: did not protect from LPS-induced ALI in CD44 and Caveolin-1 knockout mice; also recorded: protection was blocked in the CD44 knockout mouse; also recorded: but not the CD44 knockout”, the “TGF-alpha concentration in BAL fluids” value [1, 3] was “reduced the enhancing effect of LPS” and the “TGF-beta1 concentration in BAL fluids” value [1, 3] was “reduced the enhancing effect of LPS”. The “LPS-induced pulmonary hyper-permeability (BAL protein concentration)” value [1] was “pulmonary hyper-permeability was attenuated; also recorded: significant difference (p<0.05) between LPS and HMW-HA+LPS treatment in the wildtype”, the “LPS-induced pulmonary hyper-permeability (BAL protein concentration)” value ([1]; listed as HWM-HA) was “protected from LPS-induced vascular leakiness in vivo” and the “LPS-induced pulmonary hyper-permeability (BAL protein concentration)” value ([1]; listed as High MW hyaluronan) was “reduced the enhancing effect of LPS on BAL protein concentration”. The “LPS-induced pulmonary hyper-permeability (BAL protein concentration)” value ([1]; listed as high MW HA) was “attenuated the vascular hyper-permeability” and the VEGF-induced hyaluronidase expression [2] was “inhibited VEGF-induced hyaluronidase expression”.
